Experimental data: patent US20240156791A1, “METHODS OF TREATING SPINAL CORD INJURY OR DAMAGE” (Spinogenix, Inc., priority 2021, published 2024)

Test system: rat C2 hemisection (C2HS) model of spinal cord injury
Experiment: rat C2 hemisection (C2HS) model of spinal cord injury, recovery monitored by diaphragm EMG
Type: in vivo
Description: A representative compound of this disclosure, Compound 1, was used in treating spinal cord injury in rats. The rat C2 hemisection (C2HS) model of spinal cord injury was used in this experiment. The spinal cord injury was modeled in rats by hemi-section at the level of C2 followed by monitoring of lesion and recovery was conducted by one of the following methods: diaphragm EMG, transdiaphragmatic pressure, and ventilatory behaviors.
Seven rats were treated with Compound 1 (30 mg/kg) and 8 rats were treated with a vehicle (0.5% DMSO in phosphate buffered saline) for 14 days and their recovery was monitored. […] Also, the magnitude of recovery was an average 54% among recovered compound-treated rats as compared to vehicle-treated rats.
Similar experiment was carried out separately using 4 rats and it provided similar results as those described above.

[1] = separate similar experiment using 4 rats

With OCCOCCOCCOCCOc1ccc(-c2nc3ccccc3s2)cc1 [Compound 1] as the molecule, how does the “recovery compared with brain derived neurotrophic factor approaches” value (30 mg/kg for 14 days) read?
Its value is “greater than that seen for brain derived neurothrophic factor approaches”.

What about the “rats recovered as judged by diaphragm EMG” value (30 mg/kg for 14 days, seven rats, by day 14 post lesion) of the same molecule?
Its value is 86%.

And the “magnitude of recovery (average) among recovered compound-treated rats as compared to vehicle-treated rats” value (30 mg/kg for 14 days, diaphragm EMG)?
The value was 54%.

And the “recovery from spinal cord injury as judged by diaphragm EMG (FIG. 1A)” value (rats treated with compound vs vehicle (0.5% DMSO in PBS))?
Its value is “enhancement of recovery”.

What about the “% recovery as compared to vehicle-treated rats” value [1] of the same molecule?
Its value is “greater % recovery”.

And the “magnitude of recovery as compared to vehicle-treated rats” value [1]?
The value was “greater magnitude of recovery”.
